Source: US10172805B2, “Prolonged release formulations comprising an 2-oxo-1-pyrrolidine derivative” (UCB BIOPHARMA SPRL, priority 2008, dated 2019)

Key:
[1] = A. J. GOWER et al., Eur. J. Pharmacol., 222, (1992), 193-203; cited from earlier work
[2] = tested on: adult patients with refractory partial onset seizures; assay: clinical studies, adjunctive treatment of partial onset seizures (epilepsy); format: in vivo, human
Protocol: (§1) Brivaracetam is effective in the treatment of epilepsy. A clinical trial evaluated the efficacy and safety of Brivaracetam (5, 20 and 50 mg per day) in the adjunctive treatment of adult patients with refractory partial onset seizures, with or without secondary generalization. Brivaracetam is also effective in the treatment of patients with post-herpetic neuralgia.
Seletracetam is effective in the treatment of epilepsy. Two studies were conducted with Seletracetam in epilepsy evaluating the efficacy and safety of Seletracetam in the adjunctive treatment of partial onset seizures in highly refractory adult patients currently receiving up to three concomitant anti-epileptic drugs.

BCS classification = format: physicochemical
Protocol: Considering Levetiracetam, Brivaracetam and Seletracetam are classified as BCS I, in order to achieve a prolonged therapeutic plasmatic drug level the resulting in vitro dissolution (USP<711> apparatus n°2) in a buffered aqueous media has to show a drug release of no more than 40% after 1 hour of dissolution, of 25% -80% after 4 hours of dissolution and of no less than 80% after 16 hours of dissolution. Preferably, a profile of no more than 35% after 1 hour of dissolution, of 35% -75% after 4 hours of dissolution and of no less than 80% after 16 hours of dissolution. More preferably a profile of no more than 30% after 1 hour of dissolution, of 45% -70% after 4 hours of dissolution and of no less than 80% after 16 hours of dissolution.

rat hippocampal slices [3] = details: introductory statement; cited from earlier work
water solubility = format: physicochemical
GAERS rats = assay: spontaneous SWDs in GAERS rats; format: in vivo, rat
[4] = tested on: genetically sound-sensitive male mice; assay: audiogenic seizures in mice; format: in vivo; details: audiogenic seizure-susceptible mice; i.p.
Protocol: Audiogenic seizures in mice: Genetically sound-sensitive male mice (16-28 g; n=10 per group), responding with wild running, clonic and tonic convulsions to an acoustic stimulation, were used. Audiogenic seizures were induced by an acoustic stimulus (90 dB, 10-20 kHz) applied for 30 s. The mice were pretreated with either saline, brivaracetam (i.p., 30 min) or levetiracetam (i.p., 60 min), and the proportion of mice protected against clonic convulsions was used as the end point to assess anticonvulsant activity.

rat hippocampal slices [5] = assay: epileptiform responses in hippocampal slices induced by high-K+/low-Ca2+ fluid (HKLCF); format: cell-based, Sprague-Dawley rats; parameters: rate of spontaneous field bursting: dose or concentration left out as unconfirmed; details: for evoked epileptiform responses (PS1 amplitude, repetitive PSs) in CA3 area: HKLCF perfusion, fimbrial stimulation
Protocol: The effect of brivaracetam on epileptiform responses induced by high-K+/low-Ca2+ concentrations or by bicuculline was examined in transverse hippocampal slices prepared from Sprague-Dawley rats according to previously reported standard procedures. The epileptiform responses were induced by passing from a normal perfusion of artificial cerebrospinal fluid (ACSF) (K+3 mM; Ca2+2.4 mM) to either high-K+/low-Ca2+ fluid (HKLCF) (K+7.5 mM; Ca2+0.5 mM) or to […] bicuculline methiodide (BMI)-containing ACSF.
Extracellular field potentials (FPs) were recorded in the CA3 area of the slices with 2 M NaCl-filled glass microelectrodes. The evoked FPs were recorded at 10-min intervals in response to fimbrial stimulation with constant current rectangular pulses that elicit a single population spike (PS) of 50-75% of the maximal amplitude when the slice is in ACSF. In the HKLCF model, 2 min of spontaneous activity were also recorded, in the middle of each 10-min interval between the recordings of evoked responses.
Either brivaracetam or levetiracetam was added to the bathing fluid of the slices 20 min before shifting from ACSF to either HKLCF or […] BMI-containing ACSF, and was kept in the perfusion fluid throughout the experiment.

rat hippocampal slices [6] = details: introductory statement; cited from earlier work; remark: listed apart in the source
amygdala-kindled rats = assay: fully amygdala-kindled rats; format: in vivo, rat; details: for dose significantly reducing the after-discharge duration: brivaracetam at highest dose tested, levetiracetam inactive up to stated dose
[7] = tested on: patients with post-herpetic neuralgia; assay: treatment of patients with post-herpetic neuralgia; format: in vivo, human
Protocol: as §1

mice [8] = assay: chemically induced seizures in mice (pentylenetetrazol); format: in vivo; details: i.p. 30 min before seizure induction; higher ED50 values than audiogenic
Protocol: The dose was selected based on dose-effect curves in saline-treated animals as the convulsive dose inducing clonic convulsions of all four extremities in 97% of the animals. Immediately after administration of the chemoconvulsant, the mice were placed individually in small plastic cages (25 13 8 cm) and observed for the presence of clonic convulsions in all four extremities, for 60 min. The occurrence of tonic convulsions (hindlimb extension) and mortality was also recorded during this interval. The proportion of mice protected against clonic convulsions was calculated and used as the end point for anticonvulsant activity.

mice [9] = assay: corneal kindling of mice; format: in vivo
mice [10] = assay: maximal electroshock in mice; format: in vivo; details: i.p. 30 min before seizure induction; higher ED50 values than audiogenic

| SMILES | activity in the treatment of epilepsy [1] | efficacy in the treatment of epilepsy [2] | BCS class (BCS classification) | epileptiform responses induced by high-K+/low-Ca2+ concentrations (rat hippocampal slices [3]) | solubility (water solubility) [mg/mL] | dose from which spontaneous SWDs are significantly suppressed (GAERS rats) [mg/kg] | protection against clonic convulsions [4] | evoked epileptiform responses (PS1 amplitude, repetitive PSs) in CA3 area (rat hippocampal slices [5]) | epileptiform responses induced by bicuculline (rat hippocampal slices [6]) | dose from which significant suppression in motor-seizure severity is induced (amygdala-kindled rats) [mg/kg] | dose significantly reducing the after-discharge duration (amygdala-kindled rats) [mg/kg] | efficacy in post-herpetic neuralgia [7] | protection against clonic convulsions induced by pentylenetetrazol (mice [8]) | incidence of generalized motor seizures after termination of treatment (mice [9]; continued corneal stimulations, group previously treated with the highest dose) | incidence of generalized motor seizures (mice [9]; pretreatment during corneal kindling, levetiracetam at higher doses) | inhibition of spontaneous SWDs (GAERS rats; highest dose tested (67.9 mg kg−1)) | protection against tonic hindlimb extension induced by a maximal electroshock (mice [10]) | rate of spontaneous field bursting (rat hippocampal slices [5]; HKLCF) |
| --- | --- | --- | --- | --- | --- | --- | --- | --- | --- | --- | --- | --- | --- | --- | --- | --- | --- | --- |
| CC[C@H](C(N)=O)N1CCCC1=O [(R)-(+)-α-ethyl-2-oxo-1-pyrrolidine-acetamide] | completely devoid of activity |  |  |  |  |  |  |  |  |  |  |  |  |  |  |  |  |  |
| CC[C@@H](C(N)=O)N1C[C@H](C=C(F)F)CC1=O [Seletracetam, (2S)-2-[(4S)-4-(2,2-difluorovinyl)-2-oxo-pyrrolidin-1-yl]butanamide] |  | effective | BCS I |  |  |  |  |  |  |  |  |  |  |  |  |  |  |  |
| CC[C@@H](C(N)=O)N1CCCC1=O [Levetiracetam, (S)-(−)α-ethyl-2-oxo-1-pyrrolidineacetamide] |  |  | BCS I | reduces epileptiform responses | > 500 | 5.4 | protected | reduced these epileptiform responses | reduces epileptiform responses | 170 | > 1700 |  |  |  |  |  |  |  |
| CCC[C@@H]1CC(=O)N([C@@H](CC)C(N)=O)C1 [Brivaracetam, (2S)-2-[(4R)-2-oxo-4-propyl-pyrrolidin-1-yl] butanamide] |  | effective | BCS I |  |  | 2.1 | protected | reduced these epileptiform responses |  | 21.2 | 212.3 | effective | protected | persistent reduction | significant reduction | complete inhibition | protected | reduced the rate |
